The values that follow come from the supplement of paper PMC10307832.

Common to all, as to assay: relative viability (nuclei count vs DMSO), 5 days (fraction); higher = more cells survive
Compound in assay [1]: CC(C)C[C@H](NC(=O)[C@H](CCc1ccccc1)NC(=O)CN1CCOCC1)C(=O)N[C@@H](Cc1ccccc1)C(=O)N[C@@H](CC(C)C)C(=O)[C@@]1(C)CO1 [Carfilzomib] + O=C(c1cc(Cc2n[nH]c(=O)c3ccccc23)ccc1F)N1CCN(C(=O)C2CC2)CC1 [Olaparib] (partner 8 µM)
Summed up: (§1)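 Five library-drug doses in √10 steps were combined with a fixed anchor-drug dose, or a single drug was given alone, by pin tool to lung cancer cell lines in 1536-well plates the day after seeding. Nuclei were stained and counted after 5 days. Relative viability is the nuclei count in treated wells over that in vehicle wells, taken as the median of duplicate plates.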

Compound in assay [2]: CC(C)C[C@H](NC(=O)[C@H](CCc1ccccc1)NC(=O)CN1CCOCC1)C(=O)N[C@@H](Cc1ccccc1)C(=O)N[C@@H](CC(C)C)C(=O)[C@@]1(C)CO1 [Carfilzomib] + COc1cccc2cc(-c3nc([C@H]4CC[C@H](C(=O)O)CC4)n4ncnc(N)c34)[nH]c12 [OSI-027] (partner 0.5 µM)
In outline: as §1

Compound in assay [3]: O=C(c1cc(Cc2n[nH]c(=O)c3ccccc23)ccc1F)N1CCN(C(=O)C2CC2)CC1 [Olaparib] + CS(=O)(=O)N1CCN(Cc2cc3nc(-c4cccc5[nH]ncc45)nc(N4CCOCC4)c3s2)CC1 [Pictilisib] (partner 1 µM)
Summed up:
as §1

Compound in assay [4]: C[C@@H](Oc1cc(-c2cnn(C3CCNCC3)c2)cnc1N)c1c(Cl)ccc(F)c1Cl [Crizotinib] + O=C(CCCCCCC(=O)Nc1ccccc1)NO [Vorinostat] (partner 1 µM)
In outline: as §1

As to NCI-H3122, the relative viability came out at 0.654 in assay [1] (first compound 0.001 µM); 0.611 in assay [1] (first compound 0.003162 µM); 0.609 in assay [1] (first compound 0.01 µM); 0.452 in assay [1] (first compound 0.03162 µM); 0.269 in assay [1] (first compound 0.1 µM); 1.01 in assay [2] (first compound 0.001 µM). For the same cell line, the relative viability in assay [2] (first compound 0.003162 µM) was found to be 1.05; in assay [2] (first compound 0.01 µM), 1.07; in assay [2] (first compound 0.03162 µM), 0.872; in assay [2] (first compound 0.1 µM), 0.154; in assay [3] (first compound 0.08 µM) it was 0.629; in assay [3] (first compound 0.253 µM), 0.532. The relative viability was 0.587 in assay [3] (first compound 2.53 µM); 0.627 in assay [3] (first compound 8 µM); 0.929 in assay [4] (first compound 0.01 µM); 0.753 in assay [4] (first compound 0.03162 µM); 0.932 in assay [4] (first compound 0.1 µM); 0.941 in assay [4] (first compound 0.3162 µM). For the same cell line, in assay [4] (first compound 1 µM), the relative viability came to 0.961.

PC-3 [JPC-3]: the relative viability in assay [1] (first compound 0.001 µM) amounted to 1.17; in assay [1] (first compound 0.003162 µM), 1.16; in assay [1] (first compound 0.01 µM), 1.18; in assay [1] (first compound 0.03162 µM), 0.652; in assay [1] (first compound 0.1 µM) it was 0.301; in assay [2] (first compound 0.001 µM) it was 0.801. The relative viability worked out at 0.775 in assay [2] (first compound 0.003162 µM); 0.813 in assay [2] (first compound 0.01 µM); 0.755 in assay [2] (first compound 0.03162 µM); 0.352 in assay [2] (first compound 0.1 µM); 0.857 in assay [3] (first compound 0.08 µM); 0.592 in assay [3] (first compound 0.253 µM). Moreover, the relative viability in assay [3] (first compound 2.53 µM) is 0.712; in assay [3] (first compound 8 µM), 0.673; in assay [4] (first compound 0.01 µM), 0.687; in assay [4] (first compound 0.03162 µM) it was 0.903; in assay [4] (first compound 0.1 µM), 1.16; in assay [4] (first compound 1 µM), 0.71.

Turning to PC-14, the relative viability was 0.281 in assay [1] (first compound 0.001 µM); 0.334 in assay [1] (first compound 0.003162 µM); 0.243 in assay [1] (first compound 0.01 µM); 0.0393 in assay [1] (first compound 0.03162 µM); 0.0576 in assay [1] (first compound 0.1 µM); 0.904 in assay [2] (first compound 0.001 µM). In addition, the relative viability was 0.962 in assay [2] (first compound 0.003162 µM); 0.603 in assay [2] (first compound 0.01 µM); 0.0409 in assay [2] (first compound 0.03162 µM); 0.0529 in assay [2] (first compound 0.1 µM); 0.872 in assay [3] (first compound 0.08 µM); 0.59 in assay [3] (first compound 0.253 µM). Also, the relative viability was determined as 0.601 in assay [3] (first compound 2.53 µM); 0.466 in assay [3] (first compound 8 µM); 0.632 in assay [4] (first compound 0.01 µM); 0.792 in assay [4] (first compound 0.03162 µM); 0.693 in assay [4] (first compound 0.1 µM); 0.608 in assay [4] (first compound 0.3162 µM). For the same cell line, the relative viability in assay [4] (first compound 1 µM) stood at 0.784.

Take RERF-LC-KJ: the relative viability in assay [1] (first compound 0.001 µM) is 1.05; in assay [1] (first compound 0.003162 µM) it was 0.898; in assay [1] (first compound 0.01 µM) it was 0.91; in assay [1] (first compound 0.03162 µM), 0.379; in assay [1] (first compound 0.1 µM), 0.22; in assay [2] (first compound 0.001 µM) it was 0.551. In addition, the relative viability in assay [2] (first compound 0.003162 µM) came out at 0.525; in assay [2] (first compound 0.01 µM), 0.72; in assay [2] (first compound 0.03162 µM), 0.322; in assay [2] (first compound 0.1 µM), 0.221; in assay [3] (first compound 0.08 µM), 0.491; in assay [3] (first compound 0.253 µM) it was 0.522. The relative viability in assay [3] (first compound 2.53 µM) was 0.648; in assay [3] (first compound 8 µM), 0.526; in assay [4] (first compound 0.01 µM), 0.695; in assay [4] (first compound 0.03162 µM), 0.708; in assay [4] (first compound 0.1 µM), 0.709; in assay [4] (first compound 0.3162 µM), 0.566. The relative viability in assay [4] (first compound 1 µM) came out at 0.773.

As for SK-LU-1, the relative viability in assay [1] (first compound 0.001 µM) stood at 0.421; in assay [1] (first compound 0.003162 µM) it was 0.54; in assay [1] (first compound 0.01 µM), 0.438; in assay [1] (first compound 0.03162 µM), 0.198; in assay [1] (first compound 0.1 µM), 0.147; in assay [2] (first compound 0.001 µM) it was 0.36. Besides, the relative viability in assay [2] (first compound 0.003162 µM) is 0.362; in assay [2] (first compound 0.01 µM), 0.399; in assay [2] (first compound 0.03162 µM) it was 0.102; in assay [2] (first compound 0.1 µM), 0.138; in assay [3] (first compound 0.08 µM) it was 0.608; in assay [3] (first compound 0.253 µM) it was 0.569. In addition, the relative viability in assay [3] (first compound 2.53 µM) is 0.602; in assay [3] (first compound 8 µM), 0.353; in assay [4] (first compound 0.01 µM), 0.73; in assay [4] (first compound 0.03162 µM), 0.727; in assay [4] (first compound 0.1 µM) it was 0.71; in assay [4] (first compound 0.3162 µM), 0.801. Further, the relative viability in assay [4] (first compound 1 µM) was determined as 0.761.

SK-MES-1: the relative viability in assay [1] (first compound 0.001 µM) came out at 0.709; in assay [1] (first compound 0.003162 µM), 0.847; in assay [1] (first compound 0.01 µM), 0.775; in assay [1] (first compound 0.03162 µM), 0.276; in assay [1] (first compound 0.1 µM), 0.146; in assay [2] (first compound 0.001 µM), 0.637. The relative viability in assay [2] (first compound 0.003162 µM) was found to be 0.632; in assay [2] (first compound 0.01 µM), 0.652; in assay [2] (first compound 0.03162 µM), 0.336; in assay [2] (first compound 0.1 µM), 0.145; in assay [3] (first compound 0.08 µM), 0.399; in assay [3] (first compound 0.253 µM), 0.297. Besides, the relative viability in assay [3] (first compound 2.53 µM) was 0.355; in assay [3] (first compound 8 µM), 0.328; in assay [4] (first compound 0.01 µM), 0.993; in assay [4] (first compound 0.03162 µM), 1.11; in assay [4] (first compound 0.1 µM) it was 1.09; in assay [4] (first compound 0.3162 µM) it was 0.981. Also, the relative viability in assay [4] (first compound 1 µM) worked out at 1.07.

Take SW 1573: the relative viability in assay [1] (first compound 0.001 µM) was found to be 0.587; in assay [1] (first compound 0.003162 µM) it was 0.487; in assay [1] (first compound 0.01 µM), 0.215; in assay [1] (first compound 0.03162 µM), 0.0532; in assay [1] (first compound 0.1 µM), 0.0533; in assay [2] (first compound 0.001 µM), 0.717. Further, the relative viability in assay [2] (first compound 0.003162 µM) was found to be 0.771; in assay [2] (first compound 0.01 µM) it was 0.403; in assay [2] (first compound 0.03162 µM), 0.0525; in assay [2] (first compound 0.1 µM), 0.0647; in assay [3] (first compound 0.08 µM), 0.526; in assay [3] (first compound 2.53 µM), 0.508. For the same cell line, the relative viability in assay [3] (first compound 8 µM) worked out at 0.381; in assay [4] (first compound 0.01 µM), 0.824; in assay [4] (first compound 0.03162 µM) it was 0.947; in assay [4] (first compound 0.1 µM) it was 0.729; in assay [4] (first compound 0.3162 µM) it was 0.55; in assay [4] (first compound 1 µM) it was 0.671.

Take UMC-11: the relative viability turned out to be 0.342 in assay [1] (first compound 0.001 µM); 0.326 in assay [1] (first compound 0.003162 µM); 0.315 in assay [1] (first compound 0.01 µM); 0.347 in assay [1] (first compound 0.03162 µM); 0.205 in assay [1] (first compound 0.1 µM); 0.503 in assay [2] (first compound 0.001 µM). For the same cell line, the relative viability in assay [2] (first compound 0.003162 µM) turned out to be 0.474; in assay [2] (first compound 0.01 µM), 0.496; in assay [2] (first compound 0.03162 µM), 0.426; in assay [2] (first compound 0.1 µM) it was 0.211; in assay [3] (first compound 0.08 µM), 0.909; in assay [3] (first compound 0.253 µM), 0.687. For the same cell line, the relative viability in assay [3] (first compound 2.53 µM) was found to be 0.658; in assay [3] (first compound 8 µM) it was 0.307; in assay [4] (first compound 0.01 µM) it was 0.271; in assay [4] (first compound 0.03162 µM), 0.424; in assay [4] (first compound 0.1 µM), 0.407; in assay [4] (first compound 0.3162 µM), 0.356. Besides, the relative viability in assay [4] (first compound 1 µM) turned out to be 0.427.
